According to the supplement of paper PMC10307832:

What was measured:
Assay in all cases: relative viability (nuclei count vs DMSO), 5 days (fraction); higher = more cells survive
[1] = compound: CC[C@H](Nc1ncnc2[nH]cnc12)c1nc2cccc(F)c2c(=O)n1-c1ccccc1 [Idelalisib] + COc1cc2c(Oc3ccc(NC(=O)C4(C(=O)Nc5ccc(F)cc5)CC4)cc3F)ccnc2cc1OCCCN1CCOCC1 [Foretinib] (partner 0.25 µM)
In short: (§1)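 Relative viability is defined as nuclei in treated wells over nuclei in vehicle wells. Duplicate plates were run and medians reported. Lung cancer cell lines in 1536-well plates were dosed by pin tool one day after seeding, with one drug or with a fixed anchor-drug dose plus five library-drug doses (not always all listed) in √10 steps, and nuclei were counted after 5 days.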

[2] = compound: Nc1nc2[nH]cc(CCc3ccc(C(=O)N[C@@H](CCC(=O)O)C(=O)O)cc3)c2c(=O)[nH]1 [Pemetrexed] + C[C@@H](Oc1cc(-c2cnn(C3CCNCC3)c2)cnc1N)c1c(Cl)ccc(F)c1Cl [Crizotinib] (partner 1 µM)
In short: as §1

[3] = compound: Nc1nc2[nH]cc(CCc3ccc(C(=O)N[C@@H](CCC(=O)O)C(=O)O)cc3)c2c(=O)[nH]1 [Pemetrexed] + Nc1ncn([C@H]2C[C@H](O)[C@@H](CO)O2)c(=O)n1 [Decitabine] (partner 2 µM)
In short: as §1

[4] = compound: CC[C@H](Nc1ncnc2[nH]cnc12)c1nc2cccc(F)c2c(=O)n1-c1ccccc1 [Idelalisib] + CC1(C)CCC(c2ccc(Cl)cc2)=C(CN2CCN(c3ccc(C(=O)NS(=O)(=O)c4ccc(N[C@H](CCN5CCOCC5)CSc5ccccc5)c(S(=O)(=O)C(F)(F)F)c4)cc3)CC2)C1 [Navitoclax] (partner 0.5 µM)
In short: as §1

Row | Cell Line | relative viability ([1]; first compound 0.04 µM) | relative viability ([1]; first compound 0.1265 µM) | relative viability ([1]; first compound 0.4 µM) | relative viability ([1]; first compound 1.265 µM) | relative viability ([1]; first compound 4 µM) | relative viability ([2]; first compound 0.002 µM) | relative viability ([2]; first compound 0.006325 µM) | relative viability ([2]; first compound 0.02 µM) | relative viability ([2]; first compound 0.06325 µM) | relative viability ([2]; first compound 0.2 µM) | relative viability ([3]; first compound 0.002 µM) | relative viability ([3]; first compound 0.006325 µM) | relative viability ([3]; first compound 0.02 µM) | relative viability ([3]; first compound 0.06325 µM) | relative viability ([3]; first compound 0.2 µM) | relative viability ([4]; first compound 0.04 µM) | relative viability ([4]; first compound 0.1265 µM) | relative viability ([4]; first compound 0.4 µM) | relative viability ([4]; first compound 1.265 µM) | relative viability ([4]; first compound 4 µM)
1 | SW 1573 | 1.05 | 1.07 | 0.786 | 0.986 | 0.971 | 0.658 | 0.79 | 0.919 | 0.888 | 0.791 | 0.577 | 0.662 | 0.615 | 0.53 | 0.525 | 0.859 | 0.837 | 0.994 | 0.926 | 0.791
2 | NCI-H2405 | 1.11 | 1.06 | 0.952 | 1.01 | 0.956 | 0.868 | 0.785 | 0.869 | 0.824 | 0.825 | 0.717 | 0.649 | 0.691 | 0.687 | 0.685 | 1.01 | 0.759 | 0.716 | 0.766 | 0.622
3 | LCLC-103H | 0.727 | 0.728 | 0.65 | 0.829 | 0.582 | 0.94 | 1.01 | 1.07 | 1.08 | 1.07 | 0.722 | 0.723 | 0.743 | 0.699 | 0.76 |  |  |  |  | 
4 | HCC-44 |  |  |  |  |  | 0.758 | 0.775 | 0.84 | 0.847 | 0.574 | 0.854 | 0.909 | 1.02 | 0.922 | 0.905 | 1.01 | 0.925 | 0.871 | 1.07 | 0.927
5 | IA-LM | 1.17 | 1.41 | 1.24 | 1.31 | 1.19 | 0.807 | 0.665 | 0.772 | 0.804 | 0.634 |  |  |  |  |  | 0.905 | 0.856 | 1.01 | 1.08 | 0.919
6 | ABC-1 | 1.09 | 1.06 | 0.853 | 0.963 | 0.977 | 0.997 | 1.2 | 1.18 | 1 | 1.05 | 1.15 | 1.02 | 1.32 | 0.997 | 1.19 |  |  |  |  | 
7 | NCI-H1395 | 1.02 | 0.959 | 0.976 | 0.963 | 0.707 |  |  |  |  |  | 0.681 | 0.71 | 0.85 | 0.697 | 0.74 | 1.53 | 1.11 | 1.05 | 1.04 | 0.982
8 | EBC-1 | 0.0986 | 0.0952 | 0.0971 | 0.107 | 0.0962 | 0.175 | 0.174 | 0.209 | 0.165 | 0.183 |  |  |  |  |  | 0.413 | 0.409 | 0.359 | 0.442 | 0.212
